From ChEMBL document CHEMBL4251572, “Novel aminopyrimidinyl benzimidazoles as potentially antimicrobial agents: Design, synthesis and biological evaluation” (Eur J Med Chem, 2018)
In brackets after ≈: the same amount, converted by molar mass.

Legend:
Escherichia coli [1] = assay: Antibacterial activity against Escherichia coli JM109 after 24 hrs by micro broth dilution assay; type: functional; conditions: JM109, 24 h
Pichia norvegensis = assay: Antifungal against Candida mycoderma after 24 hrs by two fold serial dilution method; type: functional
Aspergillus flavus = assay: Antifungal against Aspergillus flavus after 24 hrs by two fold serial dilution method; type: functional
Bacillus = assay: Antibacterial activity against Bacillus proteus ATCC 13315 after 24 hrs by micro broth dilution assay; type: functional; conditions: ATCC 13315, 24 h
Escherichia coli [2] = assay: Antibacterial activity against Escherichia coli DH52 after 24 hrs by micro broth dilution assay; type: functional; conditions: DH52, 24 h
Staphylococcus aureus [3] = assay: Antibacterial activity against methicillin-resistant Staphylococcus aureus N315 incubated for 24 hrs followed by plating onto tryptic soy agar medium and measured after 24 hrs; type: functional; conditions: N315, 24 h
Staphylococcus aureus [4] = assay: Ratio of MBC for Staphylococcus aureus ATCC 25923 to MIC for Staphylococcus aureus ATCC 25923; type: functional
Shigella dysenteriae = assay: Antibacterial activity against Shigella dysenteriae after 24 hrs by micro broth dilution assay; type: functional
Staphylococcus aureus [5] = assay: Antibacterial activity against Staphylococcus aureus ATCC 25923 incubated for 24 hrs followed by plating onto tryptic soy agar medium and measured after 24 hrs; type: functional; conditions: ATCC 25923, 24 h
Bacillus subtilis = assay: Antibacterial activity against Bacillus subtilis after 24 hrs by micro broth dilution assay; type: functional
Staphylococcus aureus [6] = assay: Antibacterial activity against methicillin-resistant Staphylococcus aureus N315 after 24 hrs by micro broth dilution assay; type: functional; conditions: N315, 24 h
Salmonella typhi = assay: Antibacterial activity against Bacillus typhi after 24 hrs by micro broth dilution assay; type: functional, Salmonella enterica subsp. enterica serovar Typhi; conditions: Salmonella enterica
Pseudomonas aeruginosa [7] = assay: Antibacterial activity against Pseudomonas aeruginosa after 24 hrs by micro broth dilution assay; type: functional
Saccharomyces cerevisiae = assay: Antifungal against Saccharomyces cerevisiae after 24 hrs by two fold serial dilution method; type: functional
Staphylococcus aureus [8] = assay: Antibacterial activity against Staphylococcus aureus ATCC 25923 after 24 hrs by micro broth dilution assay; type: functional; conditions: ATCC 25923, 24 h
Candida albicans = assay: Antifungal against Candida albicans ATCC 76615 after 24 hrs by two fold serial dilution method; type: functional; conditions: ATCC 76615, 24 h
Cyberlindnera jadinii = assay: Antifungal against Candida utilis after 24 hrs by two fold serial dilution method; type: functional; conditions: Williopsis jadinii
Micrococcus luteus = assay: Antibacterial activity against Micrococcus luteus ATCC4698 after 24 hrs by micro broth dilution assay; type: functional; conditions: ATCC4698, 24 h
Pseudomonas aeruginosa [9] = assay: Antibacterial activity against Pseudomonas aeruginosa incubated for 24 hrs followed by plating onto tryptic soy agar medium and measured after 24 hrs; type: functional

SMILES	MIC (Escherichia coli [1])	MIC (Pichia norvegensis)	MIC (Aspergillus flavus)	MIC (Bacillus)	MIC (Escherichia coli [2])	MBC (Staphylococcus aureus [3])	Ratio (Staphylococcus aureus [4])	MIC (Shigella dysenteriae)	MBC (Staphylococcus aureus [5])	MIC (Bacillus subtilis)	MIC (Staphylococcus aureus [6])	MIC (Salmonella typhi)	MIC (Pseudomonas aeruginosa [7])	MIC (Saccharomyces cerevisiae)	MIC (Staphylococcus aureus [8])	MIC (Candida albicans)	MIC (Cyberlindnera jadinii)	MIC (Micrococcus luteus)	MBC (Pseudomonas aeruginosa [9])
CCCCn1c(-c2cc(-c3ccc(F)cc3)nc(N)n2)nc2ccccc21	256 µg/mL (≈ 708 µM)	8 µg/mL (≈ 22.1 µM)	512 µg/mL (≈ 1420 µM)	64 µg/mL (≈ 177 µM)	8 µg/mL (≈ 22.1 µM)	> 512 µg/mL	2	8 µg/mL (≈ 22.1 µM)	256 µg/mL (≈ 708 µM)	1 µg/mL (≈ 2.77 µM)	256 µg/mL (≈ 708 µM)	8 µg/mL (≈ 22.1 µM)	512 µg/mL (≈ 1420 µM)	32 µg/mL (≈ 88.5 µM)	128 µg/mL (≈ 354 µM)	512 µg/mL (≈ 1420 µM)	8 µg/mL (≈ 22.1 µM)	512 µg/mL (≈ 1420 µM)	> 512 µg/mL
CCCCCCCn1c(C(=O)/C=C/c2ccc(Cl)cc2)nc2ccccc21	512 µg/mL (≈ 1340 µM)	512 µg/mL (≈ 1340 µM)	64 µg/mL (≈ 168 µM)	512 µg/mL (≈ 1340 µM)	32 µg/mL (≈ 84 µM)			512 µg/mL (≈ 1340 µM)		256 µg/mL (≈ 672 µM)	512 µg/mL (≈ 1340 µM)	512 µg/mL (≈ 1340 µM)	512 µg/mL (≈ 1340 µM)	512 µg/mL (≈ 1340 µM)	256 µg/mL (≈ 672 µM)	512 µg/mL (≈ 1340 µM)	512 µg/mL (≈ 1340 µM)	8 µg/mL (≈ 21 µM)	
CCCCCCCn1c(C(=O)/C=C/c2ccc(Cl)cc2Cl)nc2ccccc21	512 µg/mL (≈ 1230 µM)	512 µg/mL (≈ 1230 µM)	512 µg/mL (≈ 1230 µM)	512 µg/mL (≈ 1230 µM)	512 µg/mL (≈ 1230 µM)			256 µg/mL (≈ 616 µM)		512 µg/mL (≈ 1230 µM)	512 µg/mL (≈ 1230 µM)	512 µg/mL (≈ 1230 µM)	512 µg/mL (≈ 1230 µM)	512 µg/mL (≈ 1230 µM)	128 µg/mL (≈ 308 µM)	512 µg/mL (≈ 1230 µM)	512 µg/mL (≈ 1230 µM)	512 µg/mL (≈ 1230 µM)	
CCCCCCCCn1c(C(=O)/C=C/c2ccc(Cl)cc2)nc2ccccc21	512 µg/mL (≈ 1300 µM)	512 µg/mL (≈ 1300 µM)	32 µg/mL (≈ 81 µM)	512 µg/mL (≈ 1300 µM)	8 µg/mL (≈ 20.3 µM)			512 µg/mL (≈ 1300 µM)		512 µg/mL (≈ 1300 µM)	512 µg/mL (≈ 1300 µM)	128 µg/mL (≈ 324 µM)	512 µg/mL (≈ 1300 µM)	4 µg/mL (≈ 10.1 µM)	512 µg/mL (≈ 1300 µM)	4 µg/mL (≈ 10.1 µM)	512 µg/mL (≈ 1300 µM)	512 µg/mL (≈ 1300 µM)	
CCCCCCCCn1c(C(=O)/C=C/c2ccc(Cl)cc2Cl)nc2ccccc21	256 µg/mL (≈ 596 µM)	512 µg/mL (≈ 1190 µM)	512 µg/mL (≈ 1190 µM)	512 µg/mL (≈ 1190 µM)	512 µg/mL (≈ 1190 µM)			512 µg/mL (≈ 1190 µM)		512 µg/mL (≈ 1190 µM)	64 µg/mL (≈ 149 µM)	512 µg/mL (≈ 1190 µM)	512 µg/mL (≈ 1190 µM)	512 µg/mL (≈ 1190 µM)	512 µg/mL (≈ 1190 µM)	512 µg/mL (≈ 1190 µM)	512 µg/mL (≈ 1190 µM)	512 µg/mL (≈ 1190 µM)	
CCCCCCCCn1c(-c2cc(-c3ccc(Cl)cc3)nc(N)n2)nc2ccccc21	512 µg/mL (≈ 1180 µM)	8 µg/mL (≈ 18.4 µM)	256 µg/mL (≈ 590 µM)	256 µg/mL (≈ 590 µM)	512 µg/mL (≈ 1180 µM)			32 µg/mL (≈ 73.7 µM)		2 µg/mL (≈ 4.61 µM)	128 µg/mL (≈ 295 µM)	4 µg/mL (≈ 9.22 µM)	32 µg/mL (≈ 73.7 µM)	8 µg/mL (≈ 18.4 µM)	256 µg/mL (≈ 590 µM)	8 µg/mL (≈ 18.4 µM)	8 µg/mL (≈ 18.4 µM)	16 µg/mL (≈ 36.9 µM)	
CCCCCCn1c(C(=O)/C=C/c2ccc(Cl)cc2)nc2ccccc21	512 µg/mL (≈ 1400 µM)	128 µg/mL (≈ 349 µM)	128 µg/mL (≈ 349 µM)	512 µg/mL (≈ 1400 µM)	16 µg/mL (≈ 43.6 µM)			512 µg/mL (≈ 1400 µM)		256 µg/mL (≈ 698 µM)	512 µg/mL (≈ 1400 µM)	128 µg/mL (≈ 349 µM)	512 µg/mL (≈ 1400 µM)	8 µg/mL (≈ 21.8 µM)	512 µg/mL (≈ 1400 µM)	512 µg/mL (≈ 1400 µM)	512 µg/mL (≈ 1400 µM)	32 µg/mL (≈ 87.2 µM)	
CCCCCCCn1c(C(=O)/C=C/c2ccc(C)cc2)nc2ccccc21	512 µg/mL (≈ 1420 µM)	512 µg/mL (≈ 1420 µM)	512 µg/mL (≈ 1420 µM)	512 µg/mL (≈ 1420 µM)	512 µg/mL (≈ 1420 µM)			512 µg/mL (≈ 1420 µM)		512 µg/mL (≈ 1420 µM)	8 µg/mL (≈ 22.2 µM)	512 µg/mL (≈ 1420 µM)	512 µg/mL (≈ 1420 µM)	512 µg/mL (≈ 1420 µM)	4 µg/mL (≈ 11.1 µM)	16 µg/mL (≈ 44.4 µM)	512 µg/mL (≈ 1420 µM)	512 µg/mL (≈ 1420 µM)	
CCCCCCn1c(-c2cc(-c3ccc(Cl)cc3Cl)nc(N)n2)nc2ccccc21	512 µg/mL (≈ 1160 µM)	512 µg/mL (≈ 1160 µM)	512 µg/mL (≈ 1160 µM)	512 µg/mL (≈ 1160 µM)	64 µg/mL (≈ 145 µM)			512 µg/mL (≈ 1160 µM)		512 µg/mL (≈ 1160 µM)	512 µg/mL (≈ 1160 µM)	512 µg/mL (≈ 1160 µM)	512 µg/mL (≈ 1160 µM)	512 µg/mL (≈ 1160 µM)	512 µg/mL (≈ 1160 µM)	256 µg/mL (≈ 581 µM)	512 µg/mL (≈ 1160 µM)	512 µg/mL (≈ 1160 µM)	
CCCCCCCn1c(-c2cc(-c3ccc(Cl)cc3)nc(N)n2)nc2ccccc21	512 µg/mL (≈ 1220 µM)	16 µg/mL (≈ 38.1 µM)	256 µg/mL (≈ 610 µM)	512 µg/mL (≈ 1220 µM)	16 µg/mL (≈ 38.1 µM)			4 µg/mL (≈ 9.52 µM)		2 µg/mL (≈ 4.76 µM)	8 µg/mL (≈ 19 µM)	8 µg/mL (≈ 19 µM)	64 µg/mL (≈ 152 µM)	8 µg/mL (≈ 19 µM)	128 µg/mL (≈ 305 µM)	128 µg/mL (≈ 305 µM)	4 µg/mL (≈ 9.52 µM)	512 µg/mL (≈ 1220 µM)	
CCCCCCCn1c(C(=O)/C=C/c2ccc(F)cc2)nc2ccccc21	128 µg/mL (≈ 351 µM)	512 µg/mL (≈ 1400 µM)	512 µg/mL (≈ 1400 µM)	512 µg/mL (≈ 1400 µM)	512 µg/mL (≈ 1400 µM)			512 µg/mL (≈ 1400 µM)		512 µg/mL (≈ 1400 µM)	64 µg/mL (≈ 176 µM)	512 µg/mL (≈ 1400 µM)	512 µg/mL (≈ 1400 µM)	512 µg/mL (≈ 1400 µM)	512 µg/mL (≈ 1400 µM)	512 µg/mL (≈ 1400 µM)	> 512 µg/mL	512 µg/mL (≈ 1400 µM)	
